In patent US20140045809A1, “CORROLES FOR NEUROPROTECTION AND NEURORESCUE” (priority 2008, published 2014):
Entries after “also recorded” stand apart in the source; their conditions may differ.

How the values were obtained:
[1] = test system: SH-SY5Y cells; format: cell-based; details: for protection against 6-OHDA compared with porphyrins 1P-Fe and 2P-Mn / 6-OHDA-induced cytotoxicity (MTT, cell death ELISA) / cell mortality, morphology and apoptotic nuclei (GAP-43 immunofluorescence, TUNEL, DAPI): 20 μM; for protection against 6-OHDA compared with porphyrins 1P-Fe and 2P-Mn: 6-OHDA 40 μM, immunofluorescence; for 6-OHDA-induced cytotoxicity (MTT, cell death ELISA) / cell mortality, morphology and apoptotic nuclei (GAP-43 immunofluorescence, TUNEL, DAPI): 30 min before 6-OHDA (40 μM)
Protocol: SH-SY5Y cells were cultured in DMEM-Eagle/F-12(HAM) (1:1) containing 10% FCS. Cells were resuspended in medium containing 2% FCS, seeded in microtiter plates (96 wells) and allowed to attach for 24 h. To examine the neuroprotective effect, cells were pretreated for 30 min with corroles 1C-Fe and 5C-Fe (1-20 μM), and were then exposed to 6-OHDA (60 μM) for further 24 h. For neurorescue assessment, SH-SY5Y cells were first treated with 6-OHDA (60 μM) for 0.5 h, 1.5 h, 3 h and 6 h followed by the addition of compounds 1C-Fe and 5C-Fe (10 μM) for further 24 h.
SH-SY5Y cells were pretreated with or without corroles 1C-Fe, 2C-Mn and 3C-Mn and porphyrins 1P-Fe and 2P-Mn (20 μM), 30 min before exposure to 6-OHDA (40 μM) for a subsequent 24 h period. Cell viability was evaluated by MTT test and cell death was assessed using the apoptotic cell death detection ELISA kit. For neurorescue, SH-SY5Y cells were first exposed to 40 μM 6-OHDA for 0.5. 1, 1.5 and 3 h, followed by the addition of the compounds 1C-Fe, 2C-Mn and 3C-Mn (20 μM) and incubated for further 24 h. Growth-associated protein (GAP-43) was detected by fluorescence microscopy using a specific primary antibody. Apoptotic nuclei were determined by terminal deoxynucleotidyl transferase-mediated UTP-digoxigenin nick end labeling analysis. 4′,6-Diamidino-2-phenylnidole (DAPI) staining was applied for nuclear labeling. […]

[2] = test system: NSC-34 cells; format: cell-based, mouse; details: 20 μM, 24 h; for SIN-1-induced cytotoxicity (MTT and ELISA): 30 min before SIN-1 (700 μM)
Protocol: The neuroprotective effects of the iron corrole 1C-Fe and analogous porphyrin 1P-Fe against H2O2 insult were further examined in the motor neuron cell line, NSC-34. NSC-34 cell is a hybrid neuroblastoma x spinal cord (NSC) cell line that resembles motor neurons, displaying a multipolar neuron-like phenotype. Mouse motoneuronal NSC-34 cells were pretreated with or without the corroles 1C-Fe or 2C-Mn or the structurally-related porphyrins 1P-Fe, 2P-Mn, respectively, 30 min before exposure to H2O2 (200 μM) or SIN-1 (700 μM) for a subsequent 24 h period. Cell viability (FIGS. 18A, 19A) was evaluated by MTT test and cell death (FIGS. 18B, 19B) was assessed using the apoptotic cell death detection ELISA kit. [The graphs in FIGS. 18A-18B and 19A-19B present results expressed as percentage of untreated control.

[3] = test system: nitrotyrosine (Ntyr); assay: SIN-1-induced cellular protein nitration, nitrotyrosine immunofluorescence in SH-SY5Y cells; format: cell-based, human; details: 20 μM corrole, SIN-1 700 μM, 24 h
Protocol: To determine the effect of the corroles on SIN-1-induced cellular protein nitration, SH-SY5Y neuroblastoma cells were treated with SIN-1 (700 μM) in the absence or presence of 20 μM of the corroles 1C-Fe, 2C-Mn, and 3C-Mn. Protein nitration was detected by immunofluorescence analysis using a monoclonal antibody against nitrotyrosine (Ntyr), a biological marker of peroxynitrite.

[4] = test system: SH-SY5Y cells; assay: Neuroprotection/neurorescue against SIN-1-induced cell death in SH-SY5Y cells; format: cell-based, human; details: for protection against SIN-1 (MTT reduction analysis and ELISA assay): 30 min before SIN-1, 24 h (Example 12)
Protocol: SH-SY5Y cells were cultured in DMEM-Eagle/F-12(HAM) (1:1) containing 10% FCS. Cells were resuspended in medium containing 2% FCS, seeded in microtiter plates (96 wells) and allowed to attach for 24 h before initiation of treatment. […]

[5] = SOD activity (catalytic decomposition of superoxide anion radical), cytochrome C assay; format: biochemical
Protocol: (§1) SOD activity (enzyme-like catalytic decomposition of superoxide anion radical) of the corroles 1C-Fe, 6C-Fe, 1C-Mn, 1C-Cu, 2C-Mn and 3C-Mn was examined via the cytochrome C assay. The catalytic rate constants for decomposition of peroxynitrite (PN) by the newly prepared iron corrole 6C-Fe and manganese corrole 3C-Mn were determined via stopped-flow kinetics as previously described for corroles 1C-Fe, 1C-Mn, and 2C-Mn (Mahammed and Gross, 2006; Gershman et al., 2007). These tests are performed in order to estimate how electronic and structural variables affect reactivity, which is a crucial factor for design of new complexes.

[6] = Rescuing DMSO from damage attributed to the hydroxyl radical (Fenton reaction); format: biochemical; details: for Yield (%) or amount of product (Formaldehyde): substrate DMSO; for preventing oxidative damage / protection against metal-induced oxidation of substrates: summary of Table 3
From the text: Corrole complexes were examined with respect to their efficiency of rescuing DMSO from damage attributed to the hydroxyl radical, formed via the Fenton reaction that also involves superoxide anion radical and hydrogen […]. It also mimics reaction occurring in biological systems that are exposed to metal toxicity, the situation that occurs in diseases caused by brain iron accumulation.

[7] = Catalytic decomposition of peroxynitrite (PN), stopped-flow kinetics (Table 1); format: biochemical
Protocol: as §1

[8] = test system: RIN-m cells; assay: Protection of RIN-m beta cells against H2O2 toxicity (MTT); format: cell-based, rat; details: for cytoprotective effect against H2O2-induced toxicity: H2O2 150 μM
Protocol: Two insulin-secreting beta cell lines, rat insulinoma (INS-1E) and RIN-m cells, were used to examine the protective effect of corrole 1C-Fe. The cells were cultured at 37° C., in a humid 5% CO2, 95% air environment in regular RPMI-1640 medium (Invitrogen) supplemented with 5% fetal calf serum (FCS).
After 2 days of culture, RIN-m cells (5×10^4 cells/well in 96-well plates) were treated with corrole 1C-Fe (1-50 μM) before addition of 35 μM of H2O2. Cell viability was evaluated by a colorimetric assay for mitochondrial function estimation using the MTT test as previously described (Gassen et al., 1998) and expressed as percentage of control.
RIN-m cells were grown as described in Example 5. After 3 days of culture, RIN-m cells (2.5×10^4 cells/well in 96-well plates) were treated with corroles 1C-Fe or 5C-Fe or porphyrin 1P-Fe (1 and 20 μM), added 30 min prior to treatment with 35 μM H2O2 and further incubated for 24 h. Cell injury was evaluated by MTT test. […] […].
Protective effect of iron(III) corrole complexes against H2O2-induced toxicity (150 μM) was compared to that of manganese(III) corroles and related porphyrin. […].

[9] = CuSO4/ascorbate, no additive 44 μM
[10] = CuSO4/glutathione, no additive 11 μM

## O=S(=O)(O)c1cc2[n]3c1C(c1c(F)c(F)c(F)c(F)c1F)=C1C=CC4=[N+]1[Fe-]31[n]3c(cc(S(=O)(=O)O)c3-2)C(c2c(F)c(F)c(F)c(F)c2F)=c2ccc([n]21)=C4c1c(F)c(F)c(F)c(F)c1F (stereo not drawn) [1C-Fe, 2,17-bis(sulfonato)-5,10,15-tris(pentafluorophenyl)-corrolato iron(III)]
[1]
  protection against 6-OHDA compared with porphyrins 1P-Fe and 2P-Mn: remarkable superiority over the porphyrins
[1]; 24 h
  6-OHDA-induced cytotoxicity (MTT, cell death ELISA): significantly attenuated 6-OHDA-induced cytotoxicity
  cell mortality, morphology and apoptotic nuclei (GAP-43 immunofluorescence, TUNEL, DAPI): significantly attenuated 6-OHDA-induced cell mortality, improved cell morphology and reduced the number of apoptotic nuclei
[1]; 1-20 μM, 30 min before 6-OHDA (60 μM), 24 h
  neuroprotective effect against 6-OHDA-induced toxicity: dose-dependent neuroprotective effect
[1]; 6-OHDA (60 μM) for 0.5, 1.5, 3 and 6 h, then 10 μM, 24 h
  neurorescue after 6-OHDA insult: instigated neurorescue
[2]; 30 min before H2O2 (200 μM)
  protection against H2O2-mediated cytotoxicity (MTT and ELISA): significant protection
[2]
  SIN-1-induced cytotoxicity (MTT and ELISA): significantly attenuated
[3]
  nitrotyrosine (Ntyr) staining, SIN-1-induced: partial (albeit quite remarkable) reduction in Ntyr staining
[4]; 20 μM added 0.5, 1.5 or 3 h after insult, 24 h (Example 11)
  neurorescue after SIN-1 insult: instigated neurorescue
[4]; 25 μM corrole, FIG. 12C
  cytoprotection against different SIN-1 concentrations: protect cells against different SIN-1 concentrations
[4]; 10 and 20 μM, 30 min pretreatment, 24 h (Example 11)
  neuroprotective effect against SIN-1 induced toxicity: dose-dependent neuroprotective effect
[4]; 10 and 20 μM, less potent than 2C-Mn and 3C-Mn
  inhibition of neuronal death by SIN-1: able to inhibit neuronal death
[4]
  protection against SIN-1 (MTT reduction analysis and ELISA assay): protect, in a dose-dependent manner
[5]
  IC50: 1.64 µM
[6]; [9]
  Yield (%) or amount of product (Formaldehyde): 0 µM
[6]; [10]
  Yield (%) or amount of product (Formaldehyde): 0 µM
[6]
  preventing oxidative damage / protection against metal-induced oxidation of substrates: very potent in preventing the oxidative damage
[7]
  kcat, catalytic rate constant for decomposition of PN: 2e+06 M⁻¹ s⁻¹
[8]; 20 μM, 30 min before 35 μM H2O2, 24 h
  protective effect against H2O2 toxicity relative to porphyrin 1P-Fe (MTT): exhibit a greater protective effect
[8]; 1-50 μM before 35 μM H2O2
  protective effect against H2O2 toxicity (MTT): significant protective effect
[8]
  cytoprotective effect against H2O2-induced toxicity: showed cytoprotective effects

## C[n+]1ccc(C2=C3C=CC4=[N+]3[Mn-]35[n]6c2ccc6-c2ccc([n]23)C(c2cc[n+](C)cc2)=c2ccc([n]25)=C4c2c(F)c(F)c(F)c(F)c2F)cc1.[I-].[I-] (stereo not drawn) [2C-Mn, 5,15-bis(4-N-methyl-pyridilium)-10-pentafluorophenyl-corrolato manganese(III) diiodide salt]
[1]
  protection against 6-OHDA compared with porphyrins 1P-Fe and 2P-Mn: remarkable superiority over the porphyrins
[1]; 24 h
  6-OHDA-induced cytotoxicity (MTT, cell death ELISA): significantly attenuated 6-OHDA-induced cytotoxicity
  cell mortality, morphology and apoptotic nuclei (GAP-43 immunofluorescence, TUNEL, DAPI): significantly attenuated 6-OHDA-induced cell mortality, improved cell morphology and reduced the number of apoptotic nuclei
[2]
  SIN-1-induced cytotoxicity (MTT and ELISA): significantly attenuated
[3]
  nitrotyrosine (Ntyr) staining, SIN-1-induced: totally abolished
[4]
  protection against SIN-1 (MTT reduction analysis and ELISA assay): protect, in a dose-dependent manner
[5]
  IC50: 1.52 µM
[6]; [9]
  Yield (%) or amount of product (Formaldehyde): 7 µM
[6]; [10]
  Yield (%) or amount of product (Formaldehyde): 5 µM
[6]
  preventing oxidative damage / protection against metal-induced oxidation of substrates: protect better than corrole 1C-Mn
[7]
  kcat, catalytic rate constant for decomposition of PN: 400000 M⁻¹ s⁻¹
[8]
  cytoprotective effect against H2O2-induced toxicity: totally inefficient; also recorded: inefficiency
